Where “and” joins values, the source holds several entries; their conditions need not be identical. Identical values can stand only once.
Assay: molar heat capacity at constant pressure
Conditions: 101.33 kPa, Liquid, Small sample (50 mg) DSC

CCCCCCCCCCCCCC[P+](CCCCCC)(CCCCCC)CCCCCC.FC(F)(F)C(F)(F)[P-](F)(F)(F)(C(F)(F)C(F)(F)F)C(F)(F)C(F)(F)F
Conditions | molar heat capacity at constant pressure
338.15 K | 1543.8 J/K/mol [middle of 4 runs]
343.15 K | 1547.5 J/K/mol [middle of 4 runs]
348.15 K | 1556.8 J/K/mol [middle of 4 runs]
353.15 K | 1566.1 J/K/mol and 1563.3 J/K/mol
358.15 K | 1577.2 J/K/mol and 1574.4 J/K/mol
363.15 K | 1587.4 J/K/mol and 1583.7 J/K/mol and 1585.6 J/K/mol
368.15 K | 1596.7 J/K/mol [middle of 4 runs]
373.15 K | 1604.1 J/K/mol [middle of 4 runs]
378.15 K | 1615.3 J/K/mol [middle of 4 runs]
383.15 K | 1626.4 J/K/mol [middle of 4 runs]
388.15 K | 1634.8 J/K/mol
393.15 K | 1645 J/K/mol [middle of 4 runs]
398.15 K | 1652.4 J/K/mol [middle of 4 runs]
403.15 K | 1661.7 J/K/mol [middle of 4 runs]
408.15 K | 1668.2 J/K/mol and 1669.2 J/K/mol
413.15 K | 1678.4 J/K/mol and 1677.5 J/K/mol
418.15 K | 1688.7 J/K/mol and 1685.9 J/K/mol and 1687.7 J/K/mol
423.15 K | 1697 J/K/mol [middle of 4 runs]
428.15 K | 1700.7 J/K/mol [middle of 4 runs]
433.15 K | 1707.2 J/K/mol and 1711 J/K/mol
438.15 K | 1722.1 J/K/mol [middle of 4 runs]
443.15 K | 1727.7 J/K/mol [middle of 4 runs]
448.15 K | 1735.1 J/K/mol [middle of 4 runs]
453.15 K | 1743.5 J/K/mol [middle of 4 runs]
458.15 K | 1750 J/K/mol and 1753.7 J/K/mol and 1739.7 J/K/mol
463.15 K | 1756.5 J/K/mol [middle of 4 runs]
468.15 K | 1761.1 J/K/mol [middle of 4 runs]
473.15 K | 1763.9 J/K/mol [middle of 4 runs]
478.15 K | 1771.3 J/K/mol [middle of 4 runs]
483.15 K | 1768.5 J/K/mol and 1776 J/K/mol and 1780.6 J/K/mol
488.15 K | 1785.3 J/K/mol [middle of 4 runs]
493.15 K | 1785.3 J/K/mol [middle of 4 runs]
498.15 K | 1787.1 J/K/mol [middle of 4 runs]
503.15 K | 1798.3 J/K/mol [middle of 4 runs]
508.15 K | 1802 J/K/mol [middle of 4 runs]
513.15 K | 1809.4 J/K/mol and 1803.8 J/K/mol and 1805.7 J/K/mol

CCCCCCCCCCCCCC[P+](CCCCCC)(CCCCCC)CCCCCC.O=S(=O)([N-]S(=O)(=O)C(F)(F)F)C(F)(F)F
Conditions | molar heat capacity at constant pressure
328.15 K | 1373.7 J/K/mol and 1363 J/K/mol and 1359.9 J/K/mol
333.15 K | 1370.6 J/K/mol [middle of 4 runs]
338.15 K | 1375.2 J/K/mol [middle of 4 runs]
343.15 K | 1381.3 J/K/mol [middle of 4 runs]
348.15 K | 1390.5 J/K/mol [middle of 4 runs]
353.15 K | 1400.4 J/K/mol [middle of 4 runs]
358.15 K | 1410.4 J/K/mol and 1399.7 J/K/mol and 1395.1 J/K/mol
363.15 K | 1419.5 J/K/mol [middle of 4 runs]
368.15 K | 1428.7 J/K/mol and 1420.3 J/K/mol and 1426.4 J/K/mol
373.15 K | 1439.4 J/K/mol [middle of 4 runs]
378.15 K | 1445.5 J/K/mol [middle of 4 runs]
383.15 K | 1454.7 J/K/mol [middle of 4 runs]
388.15 K | 1462.3 J/K/mol [middle of 4 runs]
393.15 K | 1470 J/K/mol [middle of 4 runs]
398.15 K | 1479.9 J/K/mol [middle of 4 runs]
403.15 K | 1487.5 J/K/mol and 1478.4 J/K/mol and 1469.2 J/K/mol
408.15 K | 1494.4 J/K/mol [middle of 4 runs]
413.15 K | 1501.3 J/K/mol [middle of 4 runs]
418.15 K | 1508.9 J/K/mol [middle of 4 runs]
423.15 K | 1516.6 J/K/mol [middle of 4 runs]
428.15 K | 1521.9 J/K/mol [middle of 4 runs]
433.15 K | 1533.4 J/K/mol and 1519.6 J/K/mol and 1509.7 J/K/mol
438.15 K | 1541 J/K/mol [middle of 4 runs]
443.15 K | 1544.8 J/K/mol [middle of 4 runs]
448.15 K | 1548.6 J/K/mol [middle of 4 runs]
453.15 K | 1557.8 J/K/mol [middle of 4 runs]
458.15 K | 1561.6 J/K/mol [middle of 4 runs]
463.15 K | 1567.7 J/K/mol [middle of 4 runs]

CCCCCCCCCCCCCC[P+](CCCCCC)(CCCCCC)CCCCCC.N#C[N-]C#N [tetradecyl(trihexyl)phosphonium dicyanamide]
Conditions | molar heat capacity at constant pressure
313.15 K | 1060.2 J/K/mol and 1065.1 J/K/mol and 1061.3 J/K/mol
318.15 K | 1065.7 J/K/mol and 1070.6 J/K/mol and 1067.3 J/K/mol
323.15 K | 1075.6 J/K/mol and 1080 J/K/mol and 1076.1 J/K/mol
328.15 K | 1089.3 J/K/mol and 1086 J/K/mol and 1084.4 J/K/mol
333.15 K | 1094.3 J/K/mol and 1099.2 J/K/mol and 1095.4 J/K/mol
338.15 K | 1105.3 J/K/mol and 1109.1 J/K/mol and 1106.9 J/K/mol
343.15 K | 1114.6 J/K/mol and 1119.6 J/K/mol and 1116.8 J/K/mol
348.15 K | 1124.5 J/K/mol and 1129.5 J/K/mol and 1127.3 J/K/mol
353.15 K | 1135 J/K/mol and 1140.5 J/K/mol and 1137.2 J/K/mol
358.15 K | 1145.4 J/K/mol and 1150.4 J/K/mol and 1147.6 J/K/mol
363.15 K | 1155.3 J/K/mol and 1160.3 J/K/mol
368.15 K | 1164.1 J/K/mol and 1169.1 J/K/mol and 1165.2 J/K/mol
373.15 K | 1172.9 J/K/mol and 1177.9 J/K/mol and 1173.5 J/K/mol
378.15 K | 1180.6 J/K/mol and 1186.1 J/K/mol and 1190.5 J/K/mol
383.15 K | 1188.9 J/K/mol and 1194.4 J/K/mol and 1194.9 J/K/mol
388.15 K | 1197.7 J/K/mol and 1203.2 J/K/mol and 1204.8 J/K/mol
393.15 K | 1205.9 J/K/mol and 1212 J/K/mol and 1214.2 J/K/mol
398.15 K | 1213.6 J/K/mol and 1219.7 J/K/mol and 1220.2 J/K/mol
403.15 K | 1221.3 J/K/mol and 1226.8 J/K/mol and 1227.9 J/K/mol
408.15 K | 1227.4 J/K/mol and 1233.4 J/K/mol and 1234 J/K/mol
413.15 K | 1234.5 J/K/mol and 1241.1 J/K/mol and 1244.4 J/K/mol
